Experimental data as given in patent US8912200B2, “Alkynyl substituted pyrimidinyl-pyrroles active as kinases inhibitors” (Nerviano Medical Sciences S.R.L., priority 2011, dated 2014).

What was measured:
JAK2 kinase domain = target: T1, JAK2 kinase domain (Homo sapiens, UniProt O60674); assay: Biochemical assay for inhibitors of JAK kinase activity (JAK2, 33P-γ-ATP/dowex resin); conditions: JAK2 kinase domain 1 nM, 60 μM ATP
T1 construct: commercially available JAK2 kinase domain; purchased Invitrogen, Eugene, Oreg
T1 sequence (O60674 849-1124 limits assumed): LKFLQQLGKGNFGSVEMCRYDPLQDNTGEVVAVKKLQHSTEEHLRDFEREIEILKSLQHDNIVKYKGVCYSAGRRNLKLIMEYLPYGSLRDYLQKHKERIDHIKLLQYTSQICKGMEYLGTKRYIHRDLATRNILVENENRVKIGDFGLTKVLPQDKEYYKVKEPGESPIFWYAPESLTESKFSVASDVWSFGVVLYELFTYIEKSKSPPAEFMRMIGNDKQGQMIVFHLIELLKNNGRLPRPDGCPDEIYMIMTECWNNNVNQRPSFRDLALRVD
In short: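 Human JAK2 (1 nM) phosphorylated peptide BioDBn*306 (64 μM) with 60 μM ATP plus 3 nM 33P-γ-ATP in HEPES pH 7.5/MgCl2/DTT buffer, 60 min at room temperature. Unreacted ATP captured by Dowex resin; supernatant β-counted. IC50 from sigmoidal fit of ten-point 1:3 dilution curves.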

Lyn full length = target: T2, Lyn full length (Homo sapiens, UniProt P07948); assay: Biochemical assay for inhibitors of Lyn (Src family) kinase activity; conditions: Lyn full length 1 nM, 25 μM ATP
T2 construct: The assay has been performed using Lyn full length
T2 sequence (P07948 whole entry): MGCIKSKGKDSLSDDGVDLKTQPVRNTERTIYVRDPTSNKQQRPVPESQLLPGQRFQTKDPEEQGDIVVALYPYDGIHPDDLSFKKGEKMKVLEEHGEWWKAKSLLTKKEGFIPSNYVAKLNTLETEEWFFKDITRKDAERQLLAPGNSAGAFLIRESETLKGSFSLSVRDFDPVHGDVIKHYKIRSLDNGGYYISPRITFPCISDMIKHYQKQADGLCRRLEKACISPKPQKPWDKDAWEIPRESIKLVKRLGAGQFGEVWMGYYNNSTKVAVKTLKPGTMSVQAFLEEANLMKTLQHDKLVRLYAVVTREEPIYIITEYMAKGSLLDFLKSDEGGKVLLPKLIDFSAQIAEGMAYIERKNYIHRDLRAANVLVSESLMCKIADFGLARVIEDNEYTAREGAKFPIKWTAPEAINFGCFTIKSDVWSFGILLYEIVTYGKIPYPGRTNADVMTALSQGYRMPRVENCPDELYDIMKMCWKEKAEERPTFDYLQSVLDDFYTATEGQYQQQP
In short: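 Radiometric Lyn assay: 1 nM full-length enzyme in 50 mM HEPES pH 7.5 with 25 μM ATP plus 33P-γ-ATP and 250 μM ABI 1 peptide, 60 min at room temperature. Unreacted ATP removed by Dowex resin; supernatant β-counted. IC50 from sigmoidal fit of ten-point 1:3 dilution curves.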

[1] = tested on: JAK2 dependent human megakaryoblastic leukemia cell line SET-2; assay: Cell proliferation assay (CellTiter-Glo, 72 hours); format: cell-based; conditions: SET-2 cells
In short: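 About 5×10^3 SET-2 cells per well, in RPMI-1640 with 10% FBS, were exposed to inhibitor dilutions for 72 hours at 37 °C, 5% CO2. Viability read by CellTiter-Glo luminescence. IC50 from sigmoidal fitting of 8-point dilution curves.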

| IC50 (JAK2 kinase domain) [nM] | IC50 (Lyn full length) [nM] | IC50 ([1]; Homo sapiens) [nM] | Molecule | IC50 [1] [nM] |
| --- | --- | --- | --- | --- |
| 1 | 6 | 240 | CCc1ccc(Cl)cc1-c1[nH]c(-c2ccnc(N)n2)c(C#Cc2cccc(OC3CCN(C)CC3)c2)c1C(N)=O [compound 102, 5-(2-Aminopyrimidin-4-yl)-2-(5-chloro-2-ethylphenyl)-4-({3-[(1-methylpiperidin-4-yl)oxy]phenyl}ethynyl)-1H-pyrrole-3-carboxamide] |  |
| 4 | 23 | 180 | CCc1ccc(Cl)cc1-c1[nH]c(-c2ccnc(N)n2)c(C#Cc2ccc(N3CCN(C)CC3)cc2)c1C(N)=O [compound 103, 5-(2-Aminopyrimidin-4-yl)-2-(5-chloro-2-ethylphenyl)-4-{[4-(4-methylpiperazin-1-yl)phenyl]ethynyl}-1H-pyrrole-3-carboxamide] |  |

| Molecule | IC50 (JAK2 kinase domain) [nM] | IC50 (Lyn full length) [nM] | IC50 ([1]; Homo sapiens) [nM] | IC50 [1] [nM] |
| --- | --- | --- | --- | --- |
| [(2-Aminophenyl)ethynyl]-4-(2-Amino-phenylethynyl)-5-(2-amino-pyrimidin-4-yl)-2-(5-chloro-2-methyl-phenyl)-1H-pyrrole-3-carboxamide [compound 74] | 4 | 13 |  | 120 |
